From PubChem BioAssay (NCI)
Where “and” joins values, the source holds several entries; their conditions need not be identical. Equal entries are not always repeated.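 Interpolation was linear, between the two tested concentrations surrounding the appropriate level; five concentrations were tested over 48 hours in 96-well plates. Here, GI50 denotes the concentration required for 50% inhibition of growth. TGI denotes the concentration required for complete inhibition of growth.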

Columns and labels:
Assay in all cases: NCI tumour cell line growth inhibition, 48 h
DLD-1 colon = system: DLD-1 colon
DMS 114 small cell lung = system: DMS 114 small cell lung
HOP-18 NSCLC = system: HOP-18 NSCLC
KM20L2 colon = system: KM20L2 colon
M19-MEL melanoma = system: M19-MEL melanoma
SNB-78 CNS = system: SNB-78 CNS
XF 498 CNS = system: XF 498 CNS
RXF-631 renal = system: RXF-631 renal
P388 leukemia = system: P388 leukemia
P388/ADR leukemia = system: P388/ADR leukemia
SN12K1 renal = system: SN12K1 renal

SMILES	TGI (DLD-1 colon)	TGI (DMS 114 small cell lung)	TGI (HOP-18 NSCLC)	TGI (KM20L2 colon)	TGI (M19-MEL melanoma)	TGI (SNB-78 CNS)	TGI (XF 498 CNS)	TGI (RXF-631 renal)	GI50 (SNB-78 CNS)	TGI (P388 leukemia)	TGI (P388/ADR leukemia)	TGI (SN12K1 renal)	GI50 (DLD-1 colon)	GI50 (HOP-18 NSCLC)	GI50 (M19-MEL melanoma)	GI50 (RXF-631 renal)
COc1cc(/C=C\c2ccc(SC)cc2)cc(OC)c1OC	> 100 µM	0.268 µM	11.6 µM	0.0448 µM	> 100 µM	> 100 µM	19.8 µM									
C[Si](C)(C)C#C[I+]c1ccccc1	40.9 µM	39.7 µM	> 100 µM	> 100 µM	83.7 µM	> 100 µM	> 100 µM	> 100 µM								
N#Cc1nn(-c2ccc(Cl)cc2)c(N)c2c(=N)n3nc(-c4ccccc4)cc3nc12	> 64.2 µM			> 100 µM		> 100 µM	> 100 µM		> 100 µM							
O=c1c(-c2ccccc2)c[nH]c2cc([N+](=O)[O-])c(/C(Cl)=C/c3ccccc3)cc12	13.6 µM	19 µM	23.1 µM	> 54.3 µM	> 42.5 µM	> 27 µM	23.7 µM			> 31.6 µM	> 45.3 µM	> 41.7 µM				
CC1(c2cccc(C3CCC4(C=CC3=O)OCCO4)c2)OCCO1 (configuration not stated)	11 µM	3.68 µM		16.8 µM	25.8 µM	48.7 µM										
OC(Cn1cncn1)(Cn1cncn1)c1ccc(Cl)cc1Cl	> 100 µM	> 100 µM	> 100 µM	> 100 µM	> 100 µM	> 100 µM										
COc1cccc2c1C(=O)c1c(O)c3c(c(O)c1C2=O)C[C@@](O)(C(C)=O)C[C@@H]3OC1CC(N)C(O)C(C)O1 (some centres not stated)	5.53 µM and 6.33 µM and > 5.01 µM			2.86 µM and 1.45 µM and > 5.01 µM		2.49 µM and 3.43 µM		3.12 µM and 4.25 µM	0.184 µM	0.383 µM	9.87 µM	0.215 µM	> 5.01 µM	> 5.01 µM	> 5.01 µM	0.212 µM
Cc1[nH]n(C(=O)c2ccccc2O)c(=O)c1/C=C1\C(=O)C=Cc2ccccc21		0.801 µM		75.6 µM		98.8 µM	29 µM									
CC(=O)OC1COC(N2C(=O)C(=O)c3cc(Br)c([N+](=O)[O-])cc32)C(OC(C)=O)C1OC(C)=O (configuration not stated)	> 100 µM	65.8 µM	> 100 µM	> 100 µM	62.5 µM	> 100 µM	> 100 µM	> 100 µM								
C=C1C(=O)OC2C(C)C3C=CC(=O)[C@@]3(C)C(OC(=O)/C(C)=C/C)C1[C@@H]2OC(C)=O (some centres not stated)	1.79 µM	2.37 µM	3.28 µM	2.99 µM	1.84 µM	2.8 µM	2.53 µM									
